Values after ≈ are worked out from the molar mass of the structure shown. Where two headings read alike, the source gives them in different places. Where no end group is shown, it is not given here.

The values below come from US12582695B2, “Compositions and methods for treating glioma” (Instytut Biologii Doświadczalnej im. Marcelego Nenckiego …, priority 2018, dated 2026).

A short description of this series: Solubility study. Type of series: physicochemical.
[1] abbreviates: water, read-out: Solubility Water.

For the compound `CC(C)C[C@H](NC(=O)[C@H](CCC(N)=O)NC(=O)[C@H](Cc1ccc(O)cc1)NC(=O)[C@H](CCC(N)=O)NC(=O)[C@H](Cc1ccccc1)NC(=O)[C@H](CC(=O)O)NC(=O)[C@H](CC(C)C)NC(=O)[C@H](Cc1ccc(O)cc1)NC(=O)[C@H](CO)NC(=O)[C@H](CC(C)C)NC(=O)[C@H](CCCCN)NC(=O)[C@H](CCC(N)=O)NC(=O)[C@H](Cc1ccc(O)cc1)NC(=O)[C@@H](N)CCCCN)C(=O)N[C@@H](CC(=O)O)C(=O)O` [G7K-1], the solubility (PBS, read-out: Solubility PBS) is 60 µg/mL (≈ 30.7 µM) and the solubility under setting [1] was 380 µg/mL (≈ 195 µM). For the same compound, the “solubility in water” value (water) was “improved water solubility”.

Turning to `CC(C)C[C@H](NC(=O)[C@H](CCC(N)=O)NC(=O)[C@H](Cc1ccc(O)cc1)NC(=O)[C@H](CCC(N)=O)NC(=O)[C@H](Cc1ccccc1)NC(=O)[C@H](CC(=O)O)NC(=O)[C@H](CC(C)C)NC(=O)[C@H](Cc1ccc(O)cc1)NC(=O)[C@H](CO)NC(=O)[C@H](CC(C)C)NC(=O)[C@H](CCCCN)NC(=O)[C@H](CCC(N)=O)NC(=O)[C@@H](N)Cc1ccc(O)cc1)C(=O)N[C@@H](CC(=O)O)C(=O)O` [G7], the solubility (PBS, read-out: Solubility PBS) came to 120 µg/mL (≈ 65.8 µM). Under “aqueous buffers such as PBS”, the “solubility in aqueous buffers” value is on record as “weakly soluble”. For the same compound, under “water”, the “solubility in water” value is on record as “water insoluble”.

Consider YKKLSYLDFQYQLD [G7K2], for which the solubility came to 240 µg/mL (PBS, read-out: Solubility PBS) and 780 µg/mL under setting [1]. Under “water”, the “solubility in water” value is on record as “highest solubility”.

As for YQKLSYLDFQKQLD [G7K11], the solubility is 30 µg/mL (PBS, read-out: Solubility PBS) and 130 µg/mL under setting [1].

In the case of YQKLSYLDFQYQKD [G7K13], the solubility reads like this: (PBS, read-out: Solubility PBS) 80 µg/mL; under setting [1], 360 µg/mL. Besides, the “solubility in water” value (water) is recorded as “improved water solubility”.

Take YQKLSYLDFQYQKDK [G7K15]: the solubility (PBS, read-out: Solubility PBS) was 80 µg/mL and the solubility under setting [1] was 180 µg/mL.

As usually defined, the solubility is how much of the substance goes into solution per volume.
